Reference: patent US9770451B2, “Composition including ATM inhibitor for reducing cellular senescence and use of the composition” (Samsung Electronics Co., Ltd., priority 2014, dated 2017)

Columns and labels:
[1] = test system: progeria senescent fibroblasts (passage 17); experiment: Morphological change by microscopy; format: cell-based, human; details: CP-466722 0.1 μM
Description: Progeria senescent fibroblasts (Hutchinson-Gilford Progeria Syndrome Skin Fibroblasts, Coriell Cell Repositories, AG03198 B) were inoculated into a DMEM medium containing 10% FBS, 100 units/ml of penicillin, and 100 μg/ml of streptomycin (wherein all antibiotics were purchased from Gibco-BRL, Grand Island, N.Y.), and then, cultured in a 5% CO2 incubator at a temperature of 37° C. When progeria senescent cells were grown to about 85% confluency in a plate, the progeria senescent cells were subjected to subculture. The early subculture was carried out at a split ratio of 1:4, and the late subculture was carried out at a split ratio of 1:2. When the cell doubling time was 14 days, the cells were considered to be progeria senescent fibroblasts (passages 16 to 17).
[…] The medium was replaced by a fresh medium containing KU-60019 (0.5 μM), once every 4 days. In addition, as a negative control group, the cells were cultured under the same conditions as described above, except that a medium used herein contained DMSO (0.05 (v/v) %).
In FIG. 10, a human dermal fibroblast was cultured in the presence of the ATM-kinase inhibitor KU-60019 (0.5 μM), and then, the cell shapes were photographed using a microscope. To provide a better view of the cells formed in a dashed square a, a dashed square a1 was randomly selected, and then, the cells are shown enlarged in the dashed square a1. […]

[2] = test system: senescent myoblasts (passage 11); experiment: Morphological change by microscopy; format: cell-based, human; details: CP-466722 0.1 μM, 4 weeks
Description: A human myoblast cell line (Human Skeletal Muscle Myoblasts, Lonza CC-2580 LOT:0000387550) was inoculated into a plate (Greiner Bio One, 658950), which was coated with Collagen Type I, by using an SkBM™-2 Basal Medium (Lonza CC-3246) containing SkGM™-2 SingleQuots™ Kit (Lonza CC-3244), and then, cultured in a 5% CO2 incubator at a temperature of 37° C. When the cells were grown to about 85% confluency in the plate, the cells were subjected to subculture. The early subculture was carried out at a split ratio of 1:4, and the late subculture was carried out at a split ratio of 1:2. When the cell doubling time was 14 days, the cells were considered to be senescent […] (passages 10 to 12).
The senescent cells were inoculated into each well of a Collagen Type I-coated 6-well plate (Greiner Bio One, 657950) at a concentration of 2,000 cells/well, and then, the senescent myoblasts ([…]) in a CO2 incubator at a temperature of 37° C. for 4 weeks. The medium was replaced by a fresh medium containing KU-60019 (0.5 μM), once every 4 days. In addition, as a negative control group, the cells were cultured under the same conditions as described above, except that a medium used herein contained DMSO (0.05 (v/v) %).
In FIG. 16, the myoblasts were cultured in the presence of the ATM-kinase inhibitor KU-60019 (0.5 μM), and then, the cell shapes were photographed using a microscope. […]

COc1cc2ncnc(-n3nc(-c4ccccn4)nc3N)c2cc1OC [CP-466722, 2-(6,7-dimethoxyquinazolin-4-yl)-5-(pyridin-2-yl)-2H-1,2,4-triazol-3-amine]
cell number and morphology vs DMSO control [1]: exist in a great number in the presence of CP-466722 and show a spindle form
cell number and morphology vs DMSO control [2]: exist in a great number in the presence of CP-466722 and show a spindle form
